# Reference: patent publication US20050038113A1, “Valproic acid and derivatives for the combinatorial therapeutic treatment of human cancers and for the treatment of tumor metastasis and minimal residual disease” (G2M Cancer Drugs AG, priority 2001, published 2005)
# Assays:
# [1] = system: SKOV3 ovarian carcinoma cells; assay: MTT cell viability assay; assay type: cell-based, Human; conditions: 40 h
# Protocol: Human SKBR3 breast carcinoma cells, A431 squamous cell carcinoma cells and SKOV3 ovarian carcinoma cells were maintained in Dulbecco's modified Eagle's medium (DMEM, BioWhittaker, Verviers, Belgium) supplemented with 10% heat-inactivated fetal bovine serum (FBS), 2 mM L-glutamine, 100 units/ml penicillin, and 100 μg/ml streptomycin.
# Tumor cells were seeded in 96 well plates at a density of 1×10^4 cells/well in normal growth medium. SKBR3, A431 and SKOV3 cells were treated for 40 h with valproic acid at a final concentration of 3 mM, or 10 ng/ml of the recombinant anti-ErbB2 single chain antibody-toxin scFv(FRP5)-ETA (Wels et al., Cancer Res. 52: 6310-6317, 1992), or 10 ng/ml of the recombinant anti-EGF receptor single chain antibody-toxin scFv(14E1)-ETA (Schmidt et al., Brit. J. Cancer 75: 1575-1584, 1997), or a combination of valproic acid with either scFv(FRP5)-ETA or scFv(14E1)-ETA at the same concentrations. […] After solubilization of the formazan product, the absorption at 590 nm was determined in a microplate reader (Dynatech, Denkendorf, Germany) and the relative amount of viable cells in comparison to cells cultured without the addition of valproic acid or antibody-toxins was calculated.
# [2] = system: Renca-lacZ/EGFR renal carcinoma cells; assay: MTT cell viability assay; assay type: cell-based, Mouse; conditions: 40 h
# From the text: (§1) Renal cell carcinoma (Renca) cells stably transfected with plasmid pZeoSV2/lacZ encoding E. coli β-galactosidase, and either with plasmids pSV2ErbB2N and pSV2neo encoding c-erbB2 and neomycin resistance (Renca-lacZ/ErbB2) (Maurer-Gebhard et al., Cancer Res. 58: 2661-2666, 1998), or plasmids pLTR-EGFR or pLTR-EGFRvIII and pSV2neo encoding epidermal growth factor (EGF) receptor, the oncogenically activated EGF receptor variant EGFRvIII, and neomycin resistance (Renca-lacZ/EGFR and Renca-lacZ/EGFRvIII) (Schmidt et al., Oncogene 18: 1711-1721, 1999) were grown in RPMI-1640 medium supplemented with 8% FBS, 2 mM L-glutamine, 100 U/ml penicillin, 100 μg/ml streptomycin, 0.25 mg/ml Zeocin and 0.48 mg/ml G418.
# (§2) Tumor cells were seeded in 96 well plates at a density of 1×10^4 cells/well in normal growth medium. SKBR3, A431 and SKOV3 cells were treated for 40 h with valproic acid at a final concentration of 3 mM, or 10 ng/ml of the recombinant anti-ErbB2 single chain antibody-toxin scFv(FRP5)-ETA (Wels et al., Cancer Res. 52: 6310-6317, 1992), or 10 ng/ml of the recombinant anti-EGF receptor single chain antibody-toxin scFv(14E1)-ETA (Schmidt et al., Brit. J. Cancer 75: 1575-1584, 1997), or a combination of valproic acid with either scFv(FRP5)-ETA or scFv(14E1)-ETA at the same concentrations. Renca-lacZ/ErbB2, Renca-lacZ/EGFR and Renca-lacZ/EGFRvIII cells were treated for 40 h with valproic acid at a final concentration of 1 mM, or 10 ng/ml of the recombinant anti-ErbB2 single chain antibody-toxin scFv(FRP5)-ETA, or 1 ng/ml of the recombinant anti-EGF receptor single chain antibody-toxin scFv(14E1)-ETA, or a combination of valproic acid with either scFv(FRP5)-ETA or scFv(14E1)-ETA at the same concentrations. Control cells were grown in the absence of valproic acid or antibody-toxins. Ten μl of 10 mg/ml 3-(4,5-dimethylthiazole-2-yl)-2,5 diphenyltetrazolium bromide (MTT) (Sigma, Deisenhofen, Germany) in PBS were added to each well and the cells were incubated for another 3 h. Cells were lysed by the addition of 90 μl of lysis buffer (20% SDS in 50% dimethyl formamide, pH 4.7). After solubilization of the formazan product, the absorption at 590 nm was determined in a microplate reader (Dynatech, Denkendorf, Germany) and the relative amount of viable cells in comparison to cells cultured without the addition of valproic acid or antibody-toxins was calculated.
# [3] = system: Renca-lacZ/EGFRvIII renal carcinoma cells; assay: MTT cell viability assay; assay type: cell-based, Mouse; conditions: 40 h
# From the text: as §1, §2
# [4] = system: Renca-lacZ/ErbB2 renal carcinoma cells; assay: MTT cell viability assay; assay type: cell-based, Mouse; conditions: 40 h
# From the text: as §1, §2
# [5] = dose finding experiment, VPA serum levels; assay type: in vivo, rat; conditions: chosen dosage protocol
# Protocol: MT450 cells were grown in DMEM/W10% FCS medium and tested for absence of mycoplasms just prior to injection. Cells were washed twice in PBS and suspended to a density of 5×10^6 cells per ml of PBS. 5×10^5 cells in 0.1 ml of PBS were injected into each rat. […] Rats were left to grow primary tumors for 21 days. […] The solution was sterile filtered. The compound was applied by i.p. injection. […] Two doses per day were applied. Control animals received equal amounts of a sterile isotonic sodium chloride solution.
# The experiment was terminated when tumor size in one of the rats of the control group had reached the legal limit of 50 mm. Necropsy at that time was performed on all rats of the experiment to assess lung metastasis. […] Metastasis was also found in 7 out of 8 VPA-treated rats. However, size and number of metastases were much smaller compared to NaCl-treated rats. A dose finding experiment had shown that the chosen dosage protocol lead to high initial serum levels (e.g. 3.6 mM at 1 hour after i.p. injection) which rapidly dropped (e.g. 0.25 mM at 4 hours after i.p. injection) below those levels which are maintained during therapy of epilepsy in human.
# [6] = system: PML-RAR expressing murine hematopoietic progenitors (lin-); assay: myeloid differentiation (Mac-1, FACS) of transduced hematopoietic progenitors; assay type: cell-based; conditions: VPA 1 mM with cytokines (IL3, IL6, SCF, G-CSF, GM-CSF), 8-10 days
# Protocol: Murine hematopoietic progenitors (lin-) were transduced with a retroviral vector encoding PML-RAR, and GFP as a marker. […] Myeloid differentiation was scored by analyzing the presence of the differentiation marker Mac-1.
# Lin- cells were grown for 48 hours in the presence of IL-3 (20 ng/ml), IL-6 (20 ng/ml), SCF (100 ng/ml), and then attached to non-tissue culture treated plates coated with Retronectin (Takara-Shuzo). Cells were then transduced by incubation with the supernatant from Phoenix ecotropic packaging cells (supplemented with fresh serum, and IL-3, IL-6, and SCF as above), transiently transfected with the control retroviral vector PINCO, or PINCO-PML-RAR. After 60 hours, GFP+cells were sorted by FACS, and seeded in methylcellulose plates supplemented as above, plus G-CSF (60 ng/ml) and GM-CSF (20 ng/ml). […] After 8-10 days, cells were analyzed for the presence of the myeloid differentiation marker Mac-1 by FACS.
# Differentiation was assessed after 8-10 days by analysis of the myeloid differentiation marker Mac-1.
# [7] = system: PML-RAR expressing leukemic cells; assay: survival of mice suffering from acute promyelocytic leukemia; assay type: in vivo
# Protocol: Mice that developed leukemia after inoculation with PML-RAR expressing cells were sacrificed. Single-cell suspensions of spleenocytes were prepared, and secondary recipient mice were reinoculated with 10^7 cells.
# The numbers in parentheses indicate the number of mice in the representative experiment shown.
# Kasumi-1 cells = assay: viability, cell cycle and myeloid differentiation (morphology, NBT dye reduction); assay type: cell-based, human
# Protocol: Cell numbers were evaluated and quantified by direct cell counting (trypan blue dye exclusion method) using a hematocytometer chamber and light microscopy. Morphological examination was performed by Wright-Giemsa stained cytospins; nitroblue tetrazolium (NBT) dye reduction assay, respectively. Each point represents the mean of a set of data determined in triplicate (Example 15).
# Cases were classified according to the French-American-British (FAB) classification (Bennett et al., Ann Intern Med 103, 1985). Cytogenetic analysis and RT-PCR tests were performed to rule out the presence of the APL associated fusion genes according to standard methods as described (Mandelli et al., Blood 90, 1997; Mancini et al., Br J Haematol. 91, 1995; Grimwade et al., Blood 90, 1999).
# [8] = 1 mM valproic acid + 1 ng/ml scFv(14E1)-ETA
# [9] = single reagent, valproic acid 1 mM, scFv(14E1)-ETA 1 ng/ml
smiles,measurement,setting,value
"CCCC(CCC)C(=O)O [VPA, 2-propylpentanoic acid]","cell viability, combination treatment",[1]; 3 mM valproic acid + 10 ng/ml scFv(FRP5)-ETA,pronounced additive therapeutic effect
same,cell viability,"[1]; single reagent, valproic acid 3 mM, scFv(FRP5)-ETA 10 ng/ml",inhibit the viability
same,"cell viability, combination treatment",[2]; [8],pronounced additive therapeutic effect
same,cell viability,[2]; [9],inhibit the viability
same,"cell viability, combination treatment",[3]; [8],pronounced additive therapeutic effect
same,cell viability,[3]; [9],inhibit the viability
same,"cell viability, combination treatment",[4]; 1 mM valproic acid + 10 ng/ml scFv(FRP5)-ETA,pronounced additive therapeutic effect
same,cell viability,"[4]; single reagent, valproic acid 1 mM, scFv(FRP5)-ETA 10 ng/ml",inhibit the viability
same,serum level,[5]; 1 hour after i.p. injection,3600 µM
same,serum level,[5]; 4 hours after i.p. injection,250 µM
same,differentiation block imposed by PML-RAR (Mac-1),[6],almost completely reverted the differentiation block
same,"leukemic blasts in peripheral blood, bone marrow, spleen","[7]; combination of retinoic acid and VPA, entire duration of the treatment",no leukemic blasts were observed
same,survival of leukemic mice,[7]; combination of retinoic acid pellet and VPA 400 mg/kg I.P. every 12 hours,greatest extension of survival
same,survival of leukemic mice,"[7]; single agent: retinoic acid pellets subcutaneously, VPA 400 mg/kg I.P. every 12 hours",significantly extended survival
same,myeloid differentiation,Kasumi-1 cells; VPA as a single agent,partial myeloid differentiation
same,myeloid differentiation,Kasumi-1 cells; VPA in combination with RA,complete and thus synergistic myeloid differentiation
same,positive cells in the NBT dye reduction assay,Kasumi-1 cells; VPA in combination with RA,up to 65%
same,viability,Kasumi-1 cells; VPA in combination with RA,additive effect
same,cell cycle analysis,Kasumi-1 cells; combination of VPA plus RA compared to VPA or RA alone,enhanced cell cycle shift into G1 arrest
